In brackets after ≈: the same amount, converted by molar mass. Like-named read-outs stand apart in the source and are kept apart here.
Legend:
Assay type in all cases: cell-based
[1] = tested on: SA101 S. aureus ATCC29213; assay: broth dilution MIC, S. aureus SA101; details: Staphylococcus aureus, ATCC29213, SA101 S. aureus ATCC29213; read-out: MIC
Summary of the method: (§1)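 MICs determined by CLSI standard broth dilution procedures, with azithromycin run as control macrolide.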

[2] = tested on: SA183 S. aureus ermA positive msrA unknown; assay: broth dilution MIC, S. aureus SA183; details: Staphylococcus aureus
From the text: (§2) We have collected MIC data for a total of 50 novel macrolides that this platform has produced against over 21 unique strains of B. subtilis, E. coli, S. aureus, S. pneumoniae, and H. influenzae, including several multidrug-resistant strains, with a special focus on macrolide resistant mechanisms (vide supra). Azithromycin was included as a control macrolide. CLSI standard procedures for broth dilution MIC determination were used. […] These genotypes can be constitutive or inducible. The finding that C4-epi (unnatural) isomers of the “azaketolide” macrolide class have enhanced activities relative to C4 natural isomers is very exciting.

[3] = tested on: SA418 S. aureus ermA negative msrA positive; assay: broth dilution MIC, S. aureus SA418; details: Staphylococcus aureus
From the text: as §2

[4] = tested on: SA506 S. aureus ermA positive msrA unknown; assay: broth dilution MIC, S. aureus SA506; details: Staphylococcus aureus
From the text: as §2

[5] = tested on: SA557 S. aureus ermA unknown msrA positive; assay: broth dilution MIC, S. aureus SA557; details: Staphylococcus aureus; SA557 S. aureus ermA unknown msrA positive; read-out: MIC
From the text: as §2

[6] = tested on: SA1707 S. aureus ermA negative msrA positive; assay: broth dilution MIC, S. aureus SA1707; details: Staphylococcus aureus
From the text: as §2

[7] = tested on: SA1708 S. aureus ermA positive msrA negative; assay: broth dilution MIC, S. aureus SA1708; details: Staphylococcus aureus
From the text: as §2

[8] = tested on: Spn 106 S. pneumonia ATCC49619; assay: broth dilution MIC, S. pneumoniae Spn 106; details: Streptococcus pneumoniae
From the text: as §2

[9] = tested on: Spn160 S. pneumoniae ermB unknown mefA positive; assay: broth dilution MIC, S. pneumoniae Spn160; details: Streptococcus pneumoniae
From the text: as §2

[10] = tested on: Spn1509 S. pneumoniae ermB positive mefA negative; assay: broth dilution MIC, S. pneumoniae Spn1509; details: Streptococcus pneumoniae; Spn1509 S. pneumoniae ermB positive mefA negative; read-out: MIC
From the text: as §2

[11] = tested on: Spn1533 S. pneumoniae ermB positive mefA positive; assay: broth dilution MIC, S. pneumoniae Spn1533; details: Streptococcus pneumoniae
From the text: as §2

[12] = tested on: Spn1537 S. pneumoniae ermB positive mefA positive; assay: broth dilution MIC, S. pneumoniae Spn1537; details: Streptococcus pneumoniae
From the text: as §2

[13] = tested on: HI175 H. influenzae ATCC49247; assay: broth dilution MIC, H. influenzae HI175; details: Haemophilus influenzae
From the text: as §2

HI281 H. influenzae = assay: broth dilution MIC, H. influenzae HI281; details: Haemophilus influenzae
From the text: as §2

EC107 E. coli ATCC25922 = assay: broth dilution MIC, E. coli EC107; details: Escherichia coli, read-out: MIC
Summary of the method: as §1

EC878 E. coli tolC = assay: broth dilution MIC, E. coli EC878; details: Escherichia coli
Summary of the method: as §1

EC882 E. coli imp = assay: broth dilution MIC, E. coli EC882
Summary of the method: as §1

[14] = tested on: BS1723 B. subtilis BS168 WT wild type; assay: broth dilution MIC, B. subtilis BS1723; details: Bacillus subtilis, BS1723 B. subtilis BS168 WT wild type; read-out: MIC
Summary of the method: as §1

BS1725 B. subtilis ermC = assay: broth dilution MIC, B. subtilis BS1725; details: Bacillus subtilis, BS1725 B. subtilis ermC (+ery)
Summary of the method: as §1

E. coli strains = assay: MIC against E. coli strains (Table M7); details: Escherichia coli, ATCC25922, E. coli ATCC 25922
Summary of the method: as §1

S. aureus strains = assay: MIC against S. aureus strains (Table M7); details: Staphylococcus aureus
Summary of the method: as §1

S. pneumoniae strains = assay: MIC against S. pneumoniae strains (Tables M7, M8); details: Streptococcus pneumoniae
From the text: CLSI standard procedures for broth dilution MIC determination were used. […] These genotypes can be constitutive or inducible.

E. faecalis strains = assay: MIC against E. faecalis strains (Table M8); details: Enterococcus faecalis, E. faecalis 29212
A. baumannii strains = assay: MIC against A. baumannii strains (Table M8); details: Acinetobacter baumannii, BAA747, A. baumannii BAA747-1
K. pneumoniae strains = assay: MIC against K. pneumoniae strains (Table M8); details: Klebsiella pneumoniae, K. pneumoniae 10031
H. influenzae strains = assay: MIC against H. influenzae strains (Table M8); details: Haemophilus influenzae
Summary of the method: as §1

[15] = tested on: Spn1427 S. pneumoniae ermB positive mefA negative; assay: broth dilution MIC, S. pneumoniae Spn1427; details: Streptococcus pneumoniae
From the text: as §2

[16] = Spn 106 S. pneumonia ATCC49619, read-out: MIC
[17] = Spn160 S. pneumoniae ermB unknown mefA positive, read-out: MIC
[18] = ATCC29213, S. aureus ATCC 29213, read-out: MIC S. aureus (ATCC 29213)
[19] = S. aureus 506, read-out: MIC S. aureus (506)
[20] = S. aureus 1708, read-out: MIC S. aureus (1708)
[21] = USA300, S. aureus USA300, read-out: MIC S. aureus (USA300)
[22] = S. pneumoniae 160, read-out: MIC S. pneumonae (160)
[23] = S. pneumoniae 1509, read-out: MIC S. pneumoniae (1509)
[24] = S. pneumoniae 1533, read-out: MIC S. pneumoniae (1533)
[25] = S. pneumoniae 1537, read-out: MIC S. pneumoniae (1537)
[26] = H. influenzae 49247, read-out: MIC H. influenzae (49247)
[27] = H. influenzae 49766, read-out: MIC H. influenzae (49766)

Row | SMILES | MIC [1] | MIC [2] | MIC [3] | MIC [4] | MIC [5] | MIC [6] | MIC [7] | MIC [8, 16] | MIC [9, 17] | MIC [10] | MIC [11] | MIC [12] | MIC [13] | MIC (HI281 H. influenzae) | MIC (EC107 E. coli ATCC25922) | MIC (EC878 E. coli tolC) | MIC [14] | MIC (BS1725 B. subtilis ermC) | MIC (EC882 E. coli imp; Escherichia coli) | MIC (E. coli strains) | other results
1 | CC[C@H]1OC(=O)C(C)(F)C(=O)[C@@H](C)[C@@H](O[C@@H]2OC(C)CC(N(C)C)C2O)[C@](C)(OC)C[C@@H](C)CN(C)[C@H](C)[C@H]2N(CCCCn3cc(-c4nccs4)nn3)C(=O)O[C@]12C (stereo partly drawn) [FSM-20705] | 8 µg/mL (≈ 9.39 µM) | > 32 µg/mL | 16 µg/mL (≈ 18.8 µM) | > 32 µg/mL | 8 µg/mL (≈ 9.39 µM) | 32 µg/mL (≈ 37.6 µM) | 16 µg/mL (≈ 18.8 µM) | 0.125 to 0.25 µg/mL (≈ 0.147 to 0.293 µM) | 0.5 to 1 µg/mL (≈ 0.587 to 1.17 µM) | 4 to 16 µg/mL (≈ 4.69 to 18.8 µM) | > 32 µg/mL | > 32 µg/mL | 16 to 32 µg/mL (≈ 18.8 to 37.6 µM) | > 32 µg/mL | > 32 µg/mL | 2 µg/mL (≈ 2.35 µM) | 8 µg/mL (≈ 9.39 µM) | > 32 µg/mL | – | – | MIC (EC882 E. coli imp): 0.25 µg/mL (≈ 0.293 µM)
2 | CC[C@H]1OC(=O)[C@H](C)C(=O)[C@H](C)[C@@H](O[C@@H]2OC(C)CC(N(C)C)C2O)[C@](C)(OC)C[C@@H](C)CN[C@H](C)[C@H]2N(CCCCn3cc(-c4cccc(N)n4)nn3)C(=O)O[C@]12C (stereo partly drawn) [FSM-20715] | 1 to 2 µg/mL (≈ 1.21 to 2.41 µM) | > 32 µg/mL | 2 µg/mL (≈ 2.41 µM) | > 32 µg/mL | 1 µg/mL (≈ 1.21 µM) | 2 µg/mL (≈ 2.41 µM) | 2 µg/mL (≈ 2.41 µM) | – | 0.125 to 0.25 µg/mL (≈ 0.151 to 0.302 µM) | 0.5 to 2 µg/mL (≈ 0.603 to 2.41 µM) | > 32 µg/mL | > 32 µg/mL | 2 µg/mL (≈ 2.41 µM) | 4 µg/mL (≈ 4.82 µM) | 4 µg/mL (≈ 4.82 µM) | 0.5 µg/mL (≈ 0.603 µM) | 1 µg/mL (≈ 1.21 µM) | 16 µg/mL (≈ 19.3 µM) | 0.0312 µg/mL (≈ 0.0376 µM) | 8 µg/mL (≈ 9.65 µM) | MIC ([8]; ATCC49619): 0.0156 to 0.0312 µg/mL (≈ 0.0188 to 0.0376 µM); MIC (S. aureus strains; [18]): 1 µg/mL (≈ 1.21 µM); MIC (S. aureus strains; [19]): > 32 µg/mL; MIC (S. aureus strains; [20]): 2 µg/mL (≈ 2.41 µM); MIC (S. aureus strains; [21]): 2 µg/mL (≈ 2.41 µM); MIC (S. pneumoniae strains; [22]): 0.25 µg/mL (≈ 0.302 µM); MIC (S. pneumoniae strains; [23]): 2 µg/mL (≈ 2.41 µM); MIC (S. pneumoniae strains; [24]): > 32 µg/mL; MIC (S. pneumoniae strains; [25]): > 32 µg/mL; MIC (S. pneumoniae strains; S. pneumoniae 49619, read-out: MIC S. pneumoniae (49619)): 0.125 µg/mL (≈ 0.151 µM); MIC (E. faecalis strains): 0.25 µg/mL (≈ 0.302 µM); MIC (A. baumannii strains): 8 µg/mL (≈ 9.65 µM); MIC (K. pneumoniae strains): 2 µg/mL (≈ 2.41 µM); MIC (H. influenzae strains; [26]): 0.5 µg/mL (≈ 0.603 µM); MIC (H. influenzae strains; [27]): 2 µg/mL (≈ 2.41 µM)
3 | CC[C@H]1OC(=O)[C@H](C)C(=O)[C@H](C)[C@@H](O[C@@H]2OC(C)CC(N(C)C)C2O)[C@](C)(OC)C[C@@H](C)CN[C@H](C)[C@H]2N(CCCCn3cc(-c4ccccn4)nn3)C(=O)O[C@]12C (stereo partly drawn) [FSM-20706] | 2 µg/mL (≈ 2.46 µM) | > 32 µg/mL | 2 µg/mL (≈ 2.46 µM) | > 32 µg/mL | 2 µg/mL (≈ 2.46 µM) | 4 µg/mL (≈ 4.91 µM) | 4 µg/mL (≈ 4.91 µM) | 0.0156 to 0.0312 µg/mL (≈ 0.0192 to 0.0383 µM) | – | 0.5 to 2 µg/mL (≈ 0.614 to 2.46 µM) | – | > 32 µg/mL | 0.5 to 2 µg/mL (≈ 0.614 to 2.46 µM) | 4 µg/mL (≈ 4.91 µM) | 8 µg/mL (≈ 9.83 µM) | 0.5 µg/mL (≈ 0.614 µM) | 1 µg/mL (≈ 1.23 µM) | 16 µg/mL (≈ 19.7 µM) | 0.0625 µg/mL (≈ 0.0768 µM) | 8 µg/mL (≈ 9.83 µM) | MIC [9]: 0.0625 to 0.125 µg/mL (≈ 0.0768 to 0.154 µM); MIC [15]: > 32 µg/mL; MIC (S. aureus strains; [18]): 2 µg/mL (≈ 2.46 µM); MIC (S. aureus strains; [19]): > 32 µg/mL; MIC (S. aureus strains; [20]): 1 µg/mL (≈ 1.23 µM); MIC (S. aureus strains; [21]): 2 µg/mL (≈ 2.46 µM); MIC (S. pneumoniae strains; [22]): 0.125 µg/mL (≈ 0.154 µM); MIC (S. pneumoniae strains; [23]): 4 µg/mL (≈ 4.91 µM); MIC (S. pneumoniae strains; [24]): > 32 µg/mL; MIC (S. pneumoniae strains; [25]): > 32 µg/mL; MIC (S. pneumoniae strains; read-out: MIC S. pneumoniae (49619)): ≤ 0.0625 µg/mL; MIC (E. faecalis strains): 0.25 µg/mL (≈ 0.307 µM); MIC (A. baumannii strains): 32 µg/mL (≈ 39.3 µM); MIC (K. pneumoniae strains): 4 µg/mL (≈ 4.91 µM); MIC (H. influenzae strains; [26]): 0.5 µg/mL (≈ 0.614 µM); MIC (H. influenzae strains; [27]): 2 µg/mL (≈ 2.46 µM)

Source: patent US9982005B2, “Macrolides and methods of their preparation and use” (President and Fellows of Harvard College, priority 2013, dated 2018)
